These results are taken from patent publication US20250122207A1, “AP2 ASSOCIATED KINASE 1 INHIBITORS AND USES THEREOF” (Satellos Bioscience Inc., priority 2023, published 2025).

Like-named read-outs stand apart in the source and are kept apart here. A value given as a limit tells only on which side of the number the result lay.

One test deals with AAK1 (Homo sapiens, UniProt Q2M2I8). The experiment in a line: pAP2M1 cell-based assay (in-cell Western). The text has this: pAP2M1 Cell-Based Assay (in-Cell Western):
The plate was read on Licor Odyssey CLx imaging system (LICOR) to acquire fluorescence intensity at 700 channel and 800 channel.
Data analysis: Fluorescence intensity at 700 channel served as internal standard and 800 channel were normalized with 700 channel.

Test [1] deals with T1, AAK1 (amino acids T27-A365) (Homo sapiens, UniProt Q2M2I8).
T1 construct: against AAK1 (amino acids T27-A365); 6His (N, cleaved yes)
T1 sequence (Q2M2I8 27-365): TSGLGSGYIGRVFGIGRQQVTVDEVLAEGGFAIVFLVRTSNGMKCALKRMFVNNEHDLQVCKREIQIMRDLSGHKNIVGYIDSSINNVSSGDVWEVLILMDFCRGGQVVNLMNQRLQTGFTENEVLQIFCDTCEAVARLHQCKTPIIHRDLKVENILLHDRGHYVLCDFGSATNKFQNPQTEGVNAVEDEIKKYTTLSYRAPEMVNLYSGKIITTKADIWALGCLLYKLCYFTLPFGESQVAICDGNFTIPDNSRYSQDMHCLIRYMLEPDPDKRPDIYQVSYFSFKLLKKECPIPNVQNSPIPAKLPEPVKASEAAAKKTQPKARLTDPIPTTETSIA
As to the kind of experiment: AAK1 pSENs assay. Format: biochemical. On the procedure:
(§1) The recombinant proteins were independently expressed in Escherichia coli BL21(DE3) cells cultured in Luria-Bertani (LB) medium until OD600 reached 0.6-0.8, then cooled to 15° C. and supplemented with 0.5 mM isopropyl 1-thio-D-galactopyranoside (IPTG) induce protein expression 16 h. Cells were harvested and resuspended in lysis buffer (50 mM HEPES pH 7.5, 500 mM NaCl, 5 mM imidazole, 5% glycerol, 0.5 mM Tris (2-carboxyethyl) phosphine (TCEP), cOmplete Protease Inhibitor Tablet (Roche)) and lysed by microfludics high pressure homogenizer (UH-06, Union-Biotech). Proteins were purified using […] chromatography (His FF column, Bestchrom) and eluted stepwise in binding buffer with 20-300 mM imidazole. Removal of the hexahistidine tag was performed at 4° C. overnight using recombinant TEV protease and reacted with BirA to obtain the corresponding biotinylated-AAK1, BIKE or GAK proteins. Further separated in the reverse Strep column (Strep-Tactin® XT, IBA). The Biotin elution sample was collected containing untagged biotinylated protein was then purified by Ion-exchange chromatography (Mono Q 10/100 GL, Cytiva) and Size-exclusion chromatography (HiLoad 16/600 Superdex 200 pg, Cytiva). The pure protein was stored in a storage buffer 50 mM HEPES (pH 7.5), 300 mM NaCl, 5% glycerol at −80° C. Protein were characterized by SDS-PAGE, LC-MS and aSEC.
This example describes one illustrative method for determining the IC50 of the compounds of the present invention against AAK1 (amino acids T27-A365). AAK1 protein was dissolved at 20 nM in 1× enzyme solution (50 mM HEPES pH7.5, 10 mM MgCl2, 1 mM DTT, 1% glycerol, 0.5 mM EGTA, 0.01% Briji35, 0.02% BSA) and 12.5 ul was incubated with 250 nl DMSO or 250 nl compound in DMSO at 25° C. for 15 min. The reaction was started by addition of 12.5 ul of 30 uM AQT0759 (Assayquant, CSKS-AQT0759B) and 70 uM ATP which were diluted in 1× substrate dilution buffer (50 mM HEPES pH7.5, 10 mM MgCl2, 1 mM DTT, 1% glycerol, 0.5 mM EGTA, 0.01% Briji35).

Test [2] has as its target T2, BIKE (amino acids S38-E345) (K320A, K321A) (Homo sapiens, UniProt Q9NSY1, K320A/K321A).
T2 construct: against BIKE (amino acids S38-E345) (K320A, K321A); 6His (N, cleaved yes)
The experiment in a line: BIKE pSENs assay. Format: biochemical. On the procedure: as §1
BIKE protein was dissolved at 20 nM in 1× enzyme solution (50 mM HEPES pH7.5, 10 mM MgCl2, 1 mM DTT, 1% glycerol, 0.5 mM EGTA, 0.01% Briji35, 0.02% BSA) and 12.5 ul was incubated with 250 nl DMSO or 250 nl compound in DMSO at 25° C. for 15 min. The reaction was started by addition of 12.5 ul of 30 uM AQT0759 (Assayquant, CSKS-AQT0759B) and 40 uM ATP which were diluted in 1× substrate dilution buffer (50 mM HEPES pH7.5, 10 mM MgCl2, 1 mM DTT, 1% glycerol, 0.5 mM EGTA, 0.01% Briji35).

The mark [3] stands for this setting: Hela cells co-transfected with AP2M1 and AAK1, 3 hr treatment, class symbols, read-out: AAK1 In-cell Western: IC50.
[4] abbreviates: class symbols, read-out: AAK1 pSENs: EIC50.
Where [5] appears, read: class symbols, read-out: BIKE pSENs: IC50.

T2 sequence (Q9NSY1 38-345 K320A/K321A): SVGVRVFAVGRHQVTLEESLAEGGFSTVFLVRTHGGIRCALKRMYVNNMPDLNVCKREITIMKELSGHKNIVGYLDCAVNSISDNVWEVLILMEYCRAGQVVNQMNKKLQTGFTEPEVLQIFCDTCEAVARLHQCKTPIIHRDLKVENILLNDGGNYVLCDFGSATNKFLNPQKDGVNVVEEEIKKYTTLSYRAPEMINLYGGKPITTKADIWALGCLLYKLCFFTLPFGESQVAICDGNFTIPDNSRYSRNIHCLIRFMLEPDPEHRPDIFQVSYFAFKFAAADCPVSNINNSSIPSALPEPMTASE
Chain of AAK1 (Q2M2I8 whole entry): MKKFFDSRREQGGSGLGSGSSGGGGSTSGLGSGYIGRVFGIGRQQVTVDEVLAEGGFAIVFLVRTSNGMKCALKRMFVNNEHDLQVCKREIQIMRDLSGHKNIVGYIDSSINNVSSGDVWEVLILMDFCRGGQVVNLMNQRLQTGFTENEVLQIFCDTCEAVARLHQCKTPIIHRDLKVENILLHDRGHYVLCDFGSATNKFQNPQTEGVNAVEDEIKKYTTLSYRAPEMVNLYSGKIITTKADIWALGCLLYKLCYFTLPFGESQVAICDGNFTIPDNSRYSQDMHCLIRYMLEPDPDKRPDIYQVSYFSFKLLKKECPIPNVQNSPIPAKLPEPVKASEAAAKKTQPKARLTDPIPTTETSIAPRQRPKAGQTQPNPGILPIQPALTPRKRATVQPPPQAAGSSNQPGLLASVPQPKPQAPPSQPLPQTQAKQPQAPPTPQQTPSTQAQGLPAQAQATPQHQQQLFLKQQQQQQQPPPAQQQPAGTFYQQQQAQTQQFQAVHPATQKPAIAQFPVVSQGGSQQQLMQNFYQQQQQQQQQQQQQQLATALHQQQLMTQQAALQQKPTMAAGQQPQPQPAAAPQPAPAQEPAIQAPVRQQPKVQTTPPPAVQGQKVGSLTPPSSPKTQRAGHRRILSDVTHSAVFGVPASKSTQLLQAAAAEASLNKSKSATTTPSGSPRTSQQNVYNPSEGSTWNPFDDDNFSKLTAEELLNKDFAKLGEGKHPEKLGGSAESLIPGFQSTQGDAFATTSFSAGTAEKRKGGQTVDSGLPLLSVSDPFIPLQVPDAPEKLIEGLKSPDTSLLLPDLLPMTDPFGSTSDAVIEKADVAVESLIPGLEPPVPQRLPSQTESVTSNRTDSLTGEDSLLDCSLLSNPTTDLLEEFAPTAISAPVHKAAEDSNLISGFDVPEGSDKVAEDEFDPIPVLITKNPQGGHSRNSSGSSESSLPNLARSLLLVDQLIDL

For `CC(=O)N1CC(Oc2ncccc2-c2cnn3ccc(NCCN(C)C(=O)OC(C)(C)C)nc23)C1` [Compound I-63, Tert-butyl (2-((3-(2-((1-acetylazetidin-3-yl)oxy)pyridin-3-yl)pyrazolo[1,5-a]pyrimidin-5-yl)amino)ethyl)(methyl)carbamate], the IC50 on AAK1 (setting [3]) was 51 to 150 nM; in test [1] (setting [4]), 1 to 50 nM; in test [2] (setting [5]) it was 51 to 150 nM.

In the case of `CN1C[C@@H](OC(=O)N2CCN(c3ccn4ncc(-c5cccnc5OC5CC5)c4n3)CC2)CC1=O` [Compound I-34, [(3S)-1-methyl-5-oxo-pyrrolidin-3-yl]-4-[3-[2-(cyclopropoxy)-3-pyridyl]pyrazolo[1,5-a]pyrimidin-5-yl]piperazine-1-carboxylate], the IC50 at AAK1 (setting [3]) fell in the range of 151 to 500 nM; in test [1] (setting [4]), 1 to 50 nM; in test [2] it was 151 to 500 nM.

As to `COCCN1C[C@@H](OC(=O)N2CCN(c3ccn4ncc(-c5cccnc5OC5CC5)c4n3)CC2)CC1=O` [Compound I-115, [(3S)-1-(2-methoxyethyl)-5-oxo-pyrrolidin-3-yl]-4-[3-[2-(cyclopropoxy)-3-pyridyl]pyrazolo[1,5-a]pyrimidin-5-yl]piperazine-1-carboxylate], the IC50 on AAK1 (setting [3]) was in the range of 501 to 1500 nM; in test [1] (setting [4]), 1 to 50 nM; in test [2] (setting [5]), 501 to 1500 nM.

On to `COC(=O)N1CC(Oc2ncccc2-c2cnn3ccc(N4CCN(C(=O)O[C@@H]5CNC(=O)C5)CC4)nc23)C1` [Compound I-58, [(3S)-5-oxopyrrolidin-3-yl]-4-[3-[2-(1-methoxycarbonylazetidin-3-yl)oxy-3-pyridyl]pyrazolo[1,5-a]pyrimidin-5-yl]piperazine-1-carboxylate], for which the IC50 on AAK1 (setting [3]) was 501 to 1500 nM; in test [1] (setting [4]) it was 1 to 50 nM; in test [2] (setting [5]) it was 151 to 500 nM.

Regarding `CN1C[C@@H](OC(=O)N2CCN(c3nc4c(-c5cccnc5OC5CCOCC5)cnn4cc3F)CC2)CC1=O` [Compound I-122, [(3S)-1-methyl-5-oxo-pyrrolidin-3-yl]4-[6-fluoro-3-(2-tetrahydropyran-4-yloxy-3-pyridyl)pyrazolo[1,5-a]pyrimidin-5-yl]piperazine-1-carboxylate], the IC50 at AAK1 (setting [3]) lay in the range of 501 to 1500 nM; in test [1] (setting [4]), 51 to 150 nM; in test [2] (setting [5]) it was 151 to 500 nM.

Take `O=C(O[C@H]1CO[C@H]2OCC[C@H]21)N1CCN(c2ccn3ncc(-c4cccnc4OC4CC4)c3n2)CC1` [Compound I-27, [(3aS,4R,6aR)-2,3,3a,4,5,6a-hexahydrofuro[2,3-b]furan-4-yl]-4-[3-[2-(cyclopropoxy)-3-pyridyl]pyrazolo[1,5-a]pyrimidin-5-yl]piperazine-1-carboxylate]: the IC50 is 151 to 500 nM at AAK1 (setting [3]), 1 to 50 nM in test [1] (setting [4]) and 151 to 500 nM in test [2] (setting [5]).

Consider `[2H]C([2H])([2H])N1C[C@@H](OC(=O)N2CCN(c3ccn4ncc(-c5cccnc5OC5CC5)c4n3)CC2)CC1=O` [Compound I-113, [(3S)-5-oxo-1-(trideuteriomethyl)pyrrolidin-3-yl]4-[3-[2-(cyclopropoxy)-3-pyridyl]pyrazolo[1,5-a]pyrimidin-5-yl]piperazine-1-carboxylate], for which the figures for the IC50 (on AAK1 (setting [3]); in test [1]; in test [2]) were 151 to 500 nM, 1 to 50 nM and 501 to 1500 nM, respectively.

On to `CN1C[C@@H](OC(=O)N2CCN(c3nc4c(-c5cccnc5OC5CCOC5)cnn4cc3F)CC2)CC1=O` (stereo partly drawn) [Compound I-120, [(3S)-1-methyl-5-oxo-pyrrolidin-3-yl]4-[6-fluoro-3-(2-tetrahydrofuran-3-yloxy-3-pyridyl)pyrazolo[1,5-a]pyrimidin-5-yl]piperazine-1-carboxylate], for which the IC50 at AAK1 (setting [3]) was greater than 1500 nM; in test [1] (setting [4]) it was 51 to 150 nM; in test [2] (setting [5]), 151 to 500 nM.

For `CN(CCNc1ccn2ncc(-c3cccnc3OC3CC3)c2n1)C(=O)O[C@@H]1CNC(=O)C1` [Compound I-60, [(3S)-5-oxopyrrolidin-3-yl]N-[2-[[3-[2-(cyclopropoxy)-3-pyridyl]pyrazolo[1,5-a]pyrimidin-5-yl]amino]ethyl]-N-methyl-carbamate], the results for the IC50 (on AAK1 (setting [3]); in test [1] (setting [4]); in test [2] (setting [5])) were greater than 1500 nM, 51 to 150 nM and 501 to 1500 nM, respectively.

Take `CC(C)Oc1ncccc1-c1cnn2ccc(N3CCN(C(=O)OC4(C)COC4)CC3)nc12` [Compound I-1, (3-methyloxetan-3-yl)-4-[3-(2-isopropoxy-3-pyridyl)pyrazolo[1,5-a]pyrimidin-5-yl]piperazine-1-carboxylate]: the IC50 against AAK1 lay within 501 to 1500 nM; in test [1], 51 to 150 nM; in test [2] (setting [5]) it was 501 to 1500 nM.

For the compound `COc1ncccc1-c1cnn2ccc(N3CCN(C(=O)OC4CNC(=O)C4)CC3)nc12` (stereo not shown) [Compound I-6, (5-Oxopyrrolidin-3-yl) 4-[3-(2-methoxy-3-pyridyl)pyrazolo[1,5-a]pyrimidin-5-yl]piperazine-1-carboxylate], the IC50 fell in the range of 501 to 1500 nM at AAK1 (setting [3]), 1 to 50 nM in test [1] (setting [4]) and 1 to 50 nM in test [2] (setting [5]).

With `O=C(O[C@H]1CC(=O)N(C2CCNCC2)C1)N1CCN(c2ccn3ncc(-c4cccnc4OC4CC4)c3n2)CC1` [Compound I-32, [(3S)-5-Oxo-1-(4-piperidyl)pyrrolidin-3-yl]4-[3-[2-(cyclopropoxy)-3-pyridyl]pyrazolo[1,5-a]pyrimidin-5-yl]piperazine-1-carboxylate], the IC50 at AAK1 (setting [3]) was greater than 1500 nM; in test [1] (setting [4]), 1 to 50 nM; in test [2] (setting [5]) it was 51 to 150 nM.

With `CC(C)N1C[C@@H](OC(=O)N2CCN(c3ccn4ncc(-c5cccnc5OC5CC5)c4n3)CC2)CC1=O` [Compound I-114, [(3S)-1-isopropyl-5-oxo-pyrrolidin-3-yl]-4-[3-[2-(cyclopropoxy)-3-pyridyl]pyrazolo[1,5-a]pyrimidin-5-yl]piperazine-1-carboxylate], the IC50 at AAK1 (setting [3]) was greater than 1500 nM; in test [1] (setting [4]), 51 to 150 nM; in test [2] (setting [5]) it was 501 to 1500 nM.

Turning to `C[C@@H]1CN(c2ccn3ncc(-c4cccnc4OC4CC4)c3n2)CCN1C(=O)O[C@@H]1CNC(=O)C1` [Compound I-39, [(3S)-5-oxopyrrolidin-3-yl]-(2R)-4-[3-[2-(cyclopropoxy)-3-pyridyl]pyrazolo[1,5-a]pyrimidin-5-yl]-2-methyl-piperazine-1-carboxylate], the IC50 on AAK1 (setting [3]) was in the range of 501 to 1500 nM; in test [1] (setting [4]), 1 to 50 nM; in test [2] (setting [5]) it was 151 to 500 nM.

As for `[2H]C1([2H])N(C(=O)O[C@H]2CC(=O)N(C)C2)C([2H])([2H])C([2H])([2H])N(c2ccn3ncc(-c4cccnc4OC4CC4)c3n2)C1([2H])[2H]` [Compound I-73, [(3S)-1-methyl-5-oxo-pyrrolidin-3-yl]-4-[3-[2-(cyclopropoxy)-3-pyridyl]pyrazolo[1,5-a]pyrimidin-5-yl]-2,2,3,3,5,5,6,6-octadeuterio-piperazine-1-carboxylate], the IC50 against AAK1 fell in the range of 501 to 1500 nM; in test [1], 1 to 50 nM; in test [2], 501 to 1500 nM. For the same compound, in test [1] (ratio of AAK1 pSENs activity to GAK pSENs activity, class symbols), the “AAK1:GAK pSENs Selectivity” value is given as “A (A: ≤0.015)”.

Consider `[2H]C1([2H])N(C(=O)O[C@@H]2CNC(=O)C2)C([2H])([2H])C([2H])([2H])N(c2ccn3ncc(-c4cccnc4OC4CC4)c3n2)C1([2H])[2H]` [Compound I-72, [(3S)-5-oxopyrrolidin-3-yl]4-[3-[2-(cyclopropoxy)-3-pyridyl]pyrazolo[1,5-a]pyrimidin-5-yl]-2,2,3,3,5,5,6,6-octadeuterio-piperazine-1-carboxylate], for which the IC50 lay in the range of 501 to 1500 nM at AAK1, 1 to 50 nM in test [1] and 151 to 500 nM in test [2].
